From PMC7179167 (Molecules, 2020)

Key:
S. aureus (ATCC 6538) = experiment: Disk diffusion antimicrobial test, S. aureus; type: cell-based, Staphylococcus aureus; conditions: Staphylococcus aureus, ATCC6538, Gram-positive, 20 mg per disc (title), concentration 20 µg (footnote)
Description: (§1) The newly synthesized compounds were chosen to be evaluated in vitro towards a variety of pathogenic microorganisms; Gram-positive bacteria: S. aureus (ATCC 6538) and B. subtilis (ATCC 6633); Gram-negative bacteria: P. areuginosa (ATCC 27853) and E. coli (DSMZ 1058); yeast: C. albicans (ATCC 10231) and S. cerevisiae (ATCC 9080) and fungi: A. niger (NRRL A-326) using the disk diffusion method at a single dose of 20 µl. The results are shown in Table 1 as the growth inhibition zone (mm).
(§2) The antimicrobial activity of target compounds were evaluated to be in vitro against a variety of pathogenic microorganisms, namely Staphylococcus aureus (ATCC 6538), Bacillus subtilis (ATCC 6633) (Gram-positive bacteria), Pseudomonas areuginosa (ATCC 27853), Escherichia coli (DSMZ 1058) (Gram-negative bacteria), Candida albicans (ATCC 10231), Saccharomyces cerevisiae (ATCC 9080) (Yeast) and Aspergillus niger (NRRL A-326) (Fungi) using the disk diffusion method at a single dose of 20 µg. The microorganisms were served and obtained from the Microbial Biotechnology Department, National Research Center, Giza, Egypt. Amphotericin, amoxicillin and ciprofloxacin were used as reference drugs (Oxoid™ Disks). The tested compounds 11a–c, 12a–c, 13a–i, 14a–i and 15a,b were dissolved in dimethylsulphoxide (DMSO) at a concentration of 1 mg/mL. Aliquots of 20 μl were soaked on filter paper discs (6 mm) and dried at room temperature under sterilized conditions. The paper discs were placed on inoculated agar plats and then incubated for 24 h at 37 °C for bacterial strains and after 48–72 h incubation at 30 °C for fungi. Both bacterial and yeast strains were grown on nutrient agar medium (g/l): beef extract, 3; peptone, 10 and agar, 20 at pH of 7.2. The fungal strain was grown on Czapek-Dox medium (g/l): sucrose, 30; NaNO3, 3; MgSO4.7H2O, 0.5l; KCl, 0.5; FeSO4, 0.01; K2HPO4, 1 and agar, 20 at pH of 6.0.

Bcl-2 [1] = experiment: Bcl-2 ELISA in MCF-7 cells; type: cell-based, human; conditions: for Bcl-2 (ng/50 mg Protein): MCF-7 cells treated at IC50 concentration, control 25.13 ± 3.45, mean ± SD; for Reduction of expression level of antiapoptotic protein Bcl-2 compared to the control: MCF-7 cells, IC50 concentration
From the text: (§3) The promising antiproliferative results reported for compounds 11a, 11b, 12a, 12b and 13c against cell lines under study have prompted us to investigate the mechanism of cell death induced by these compounds. Apoptosis induction was examined in both MCF-7 and HCT-116 cancer cells by assaying the level of its key protein markers, namely: proapoptotic (p53, Bcl 2-associated X, Bax and caspases3) and antiapoptotic (B-cell lymphoma-2, Bcl-2). MCF-7 and HCT-116 cells undergoing apoptosis was detected by use of the ELISA technique. Protein marker levels were quantified according to Bradford assay.
(§4) Briefly, cells ([…] and HCT) were seeded at a concentration of 1.2–1.8 × 10^3 cells/well in 6-well plates. After 48-h treatment, the collected cells were lysed and centrifuged at 10,000 rpm for 20 min at 4 °C. The protein concentration was measured in the supernatant by Bradford protein assay. Volume containing […] of total protein was incubated with […] of caspase substrate in […] of the reaction buffer at 37 °C for 1 h in the dark. Caspase-3 activity was determined by a microplate reader at 405 nm using a caspase-3 colorimetric assay kit (Abcam) according to the manufacturer’s instructions. In vitro protein level quantitative measurement of apoptotic marker p53, Bcl-2-associated X (Bax) and antiapoptotic marker B-cell lymphoma-2 (Bcl-2) in cell lysate were assessed by Enzyme-Linked Immunosorbent Assay Simple Step ELISA® (ab199080, ab119506 and ab171571; Abcam) according to the manufacturer’s instructions.

[2] = test system: S. cerevisiae (ATCC 9080); experiment: Disk diffusion antimicrobial test, S. cerevisiae; type: cell-based; conditions: Saccharomyces cerevisiae, ATCC9080, yeast, 20 mg per disc (title), concentration 20 µg (footnote)
Description: as §1, §2

Bax [3] = experiment: Bax ELISA in HCT-116 cells; type: cell-based, human; conditions: HCT-116 cells treated at IC50 concentration; control 118.54 ± 0.83; mean ± SD
From the text: as §3, §4

Bcl-2 [4] = experiment: Bcl-2 ELISA in HCT-116 cells; type: cell-based, human; conditions: for Bcl-2 (ng/50 mg Protein): HCT-116 cells treated at IC50 concentration, control 23.56 ± 3.56, mean ± SD; for Reduction of expression level of antiapoptotic protein Bcl-2 compared to the control: HCT-116 cells, IC50 concentration
From the text: as §3, §4

C. albicans (ATCC 10231) = experiment: Disk diffusion antimicrobial test, C. albicans; type: cell-based, Candida albicans; conditions: Candida albicans, ATCC10231, disk diffusion; yeast; 20 mg per disc (title), concentration 20 µg (footnote)
Description: as §1, §2

A. niger (NRRL A-326) = experiment: Disk diffusion antimicrobial test, A. niger; type: cell-based; conditions: Aspergillus niger, fungi, 20 mg per disc (title), concentration 20 µg (footnote)
Description: as §1, §2

[5] = test system: normal skin fibroblast cells (BJ-1); experiment: MTT cytotoxicity assay, normal skin fibroblast BJ-1; type: cell-based; conditions: Homo sapiens, 48 h, read-out: Growth Inhibition (%) BJ-1
Description: MCF-7 (human breast cancer), HCT-116 (human colon cancer) and HepG2 (human liver cancer) cell lines were obtained from Karolinska Institute, Stockholm, Sweden. All cells were maintained in RPMI 1640 medium. The media were supplemented with 10% heat-inactivated fetal bovine serum plus 1% antibiotic-antimycoticmixture (10,000 U/mL of potassium penicillin, 10,000 μg/mL of streptomycin sulfate, 25 μg/mL of amphotericin B and 1% of L glutamine (Biowest, USA)). BJ-1 of a human skin fibroblast derived from normal foreskin was obtained from ATCC® CRL-2522™ as a frozen ampoule with about 1 × 10^6 cells per 1 ml volume. BJ-1 was maintained in MEM with 2 mM of L-glutamine and Earle’s salts medium.
Cell viability was studied using the MTT 3-(4,5-dimethylthiazol-2-yl)-2,5-diphenyl-tetrazolium bromide (Bio Basic Canada Inc. Toronto, Canada) assay [33]. The steps were executed in a sterile laminar air flow cabinet biosafety class II level (Baker, SG403INT; Sanford, ME, USA). All incubations were carried out at 37 °C in a 5% CO2 incubator under a humidified atmosphere of 95% (Sheldon, TC2323; Cornelius, OR, USA). Cells were seeded into 96-well microtiter plastic plates at a concentration of (10^4 cells/well) and allowed to adhere for 24 h. The medium was aspirated and then added to the cells with the test compounds 11a–c, 12a–c, 13a–i, 14a–i and 15a,b at a single dose of 100 μg/mL in DMSO. After incubation of the medium for 48 h, 40 μL of MTT salt (2.5 μg/mL) was added to each well and then incubated for an additional 4 h. To stop the reaction and dissolve any formed formazan crystals, 200 μL of 10% sodium dodecyl sulfate (SDS) were added to each well and incubated overnight at 37 °C. The amount of formazan product was measured at 595 nm with a reference wavelength of 690 nm as a background using a microplate reader (Bio-Rad Laboratories, model 3350, California, USA). For the untreated cells (negative control), the medium was added instead of the tested compounds. […] Dimethylsulfoxide (DMSO) was the vehicle used for dissolution of the testing compound, and its final concentration on the cells was less than 0.2%. At the same dilution, the solvent concentration was the same for all drugs and between the control and drug treatments.

Bax [6] = experiment: Bax ELISA in MCF-7 cells; type: cell-based, human; conditions: MCF-7 cells treated at IC50 concentration; control 39.56 ± 4.56; mean ± SD
From the text: as §3, §4

B. subtilis (ATCC 6633) = experiment: Disk diffusion antimicrobial test, B. subtilis; type: cell-based, Bacillus subtilis; conditions: Bacillus subtilis, ATCC6633, Gram-positive, 20 mg per disc (title), concentration 20 µg (footnote)
Description: as §1, §2

SMILES	zone of inhibition at 20 µg/disc (S. aureus (ATCC 6538)) [mm]	Bcl-2 (ng/50 mg Protein) (Bcl-2 [1])	Reduction of expression level of antiapoptotic protein Bcl-2 compared to the control (Bcl-2 [1])	zone of inhibition at 20 µg/disc [2] [mm]	Bax (pg/50 mg Protein) (Bax [3])	Bcl-2 (ng/50 mg Protein) (Bcl-2 [4])	zone of inhibition at 20 µg/disc (C. albicans (ATCC 10231)) [mm]	zone of inhibition at 20 µg/disc (A. niger (NRRL A-326)) [mm]	inhibition at 100 µg/mL [5] [%]	Bax (pg/50 mg Protein) (Bax [6])	zone of inhibition at 20 µg/disc (B. subtilis (ATCC 6633)) [mm]	Reduction of expression level of antiapoptotic protein Bcl-2 compared to the control (Bcl-2 [4])
COc1c(C2=NNC3(C2)C(=O)Nc2ccccc23)c(OC)c2ccoc2c1OC (stereo not shown) [Compound 12b, 5’-(4,6,7-Trimethoxy-benzofuran-5-yl)-2’,4’-dihydrospiro(indoline-3,3’-pyrazol)-2-one]	10	12.87 ± 1.84	~51%	10	191.07 ± 1.95	18.87 ± 1.84	10	8	5	167.07 ± 4.83	18	–
COc1cc2occc2c(OC)c1C1=NNC2(C1)C(=O)Nc1ccccc12 (stereo not shown) [Compound 11b, 5’-(4,6-Dimethoxy-benzofuran-5-yl)-2’,4’-dihydrospiro(indoline-3,3’-pyrazol)-2-one]	–	16.18 ± 0.78	–	18	119.14 ± 1.65	7.25 ± 1.45	18	–	10.1	109.35 ± 4.05	12	~76%
COc1c(C2=NNC3(C2)C(=O)Nc2ccccc23)c(O)cc2occc12 (stereo not shown) [Compound 11a, 5’-(6-Hydroxy-4-methoxy-benzofuran-5-yl)-2’,4’-dihydrospiro(indoline-3,3’-pyrazol)-2-one]	–	12.3 ± 2.26	~ 50%	16	159.26 ± 0.96	8.2 ± 1.26	20	–	6.2	122.34 ± 3.45	12	~ 66%
COc1c(C2=NNC3(C2)C(=O)Nc2ccccc23)c(O)c(OC)c2occc12 (stereo not shown) [Compound 12a, 5’-(6-Hydroxy-4,7-dimethoxy-benzofuran-5-yl)-2’,4’-dihydrospiro(indoline-3,3’-pyrazol)-2-one]	8	13.09 ± 2.27	~52%	10	124.56 ± 0.95	21.13 ± 1.45	12	–	9.1	113.09 ± 1.98	16	–
